Measurements reported in US20250136934A1, “PRODUCTION OF INDUCED MIDBRAIN DOPAMINERGIC PROGENITOR CELLS FROM PLURIPOTENT STEM CELLS” (NUWACELL BIOTECHNOLOGIES CO., LTD., priority 2023, published 2025).

Tested on: OTX2+ imDAP cells
Experiment: FACS analysis of OTX2 expression of imDAP cells derived from hiPSCs
Assay type: cell-based, human
Details: 4-step protocol, Day 16
Method: • 1. Individualize and collect cells by either Accutase or TrypLE treatment. • 2. Wash cells with 1 ml PBS and pellet cells at 250×g for […]. • 3. Remove supernatant, add ˜200 μl of 4% PFA, mix and fix for 10 min at RT. • 4. Pellet cells at 350×g for 5 min. • 5. Wash cells by 1 ml of FACS buffer and pellet cells at 350×g for 5 min. • 6. Remove supernatant, add 200 μl/tube of FACS buffer/0.1% Triton X, mix for 10 min at RT. • 7. Wash cells by 1 ml of FACS buffer and pellet cells at 350×g for 5 min. • 8. Remove supernatant, add 200 μl/tube of primary antibody diluted in FACS buffer, mix gently, and incubate for 30 min at RT. • 9. Wash cells by 1 ml of FACS buffer and pellet cells at 350×g for 5 min. • 10. Remove supernatant, and add 200 μl of secondary antibody diluted in FACS buffer, mix gently, and incubate for 30 min at RT. • 11. Wash cells by 1 ml of FACS buffer and pellet cells at 300×g for 5 min. • 12. Remove supernatant, add 200 μl of FACS buffer, and run samples on the flow cytometer.
On Day-1, EB formation (Stage 1) was carried out by dissociating hiPSCs (Nuwacell) to form a single-cell suspension and resuspending it in Epic medium (Nuwacell, #RP01001) containing 10 μM Blebbistatin (MCE, #HY-13441) in T25 flasks on a belly dancer and culturing the cells overnight. On Day 0, ventral midbrain floor plate differentiation (Stage 2) was initiated by changing the medium to a Stage 2-1 differentiation medium containing DMEM: F12/B27 (plus Vitamin A) (98:2, v/v) as basal medium and supplemented with 0.5 μM LDN193189, 10 μM SB431542, 500 ng/mL SHH C24II, 2 μM Purmorphamine, 10 nM SAG and 1.2 μM CHIR99021 and culturing the cells for 3 Days. […] The cells of each group were stained with OTX2-FITC antibody (Miltenyi, #130-121-195), the percentage of OTX2+ imDAP cells were analyzed by flow cytometry (FIG. 8A). The cells obtained by Boost-CHIR treatment from D4 to D6, D7 or D8, or from D5 to D7 or D8 were analyzed by qRT-PCR for dorsal midbrain marker PAX6 (FIG. 8B).

## Cc1cnc(-c2cnc(NCCNc3ccc(C#N)cn3)nc2-c2ccc(Cl)cc2Cl)[nH]1 [CHIR, CHIR99021]
Boost-CHIR 7.5 μM from Day 4 to Day 6 (Stage 2-2)
  percentage of cells positive for OTX2: 75.29%
Boost-CHIR 7.5 μM from Day 4 to Day 7 (Stage 2-2)
  percentage of cells positive for OTX2: 71.92%
Boost-CHIR 7.5 μM from Day 4 to Day 8 (Stage 2-2)
  percentage of cells positive for OTX2: 79.83%
